In patent publication US11571413B2, “Nicotinamide riboside treatments of domesticated meat animals” (Kansas State University Research Foundation, priority 2017, dated 2023):
Marks after values point to notes of the source that are not given here.

Assays:
[1] = test system: finishing barrows; experiment: Loin chop color stability, 8-day simulated retail display (Example IV); assay type: in vivo, pig; conditions: NR 30 mg/kg, 10 days
Protocol: Seven days prior to the beginning of the experiment, 10 finishing barrows (initial BW 111.9±1.6 kg) were assigned to individual pens located at the East Finisher facility of the Kansas State University Swine Teaching and Research Center (Manhattan, Kans.). Each pen was 7.4 m^2 with a slatted floor, contained a nipple waterer and an individual dry feeder that allowed ad libitum access to food and water. Barrows were randomly assigned to 1 of 2 NR treatments, 0 or 30 mg/kg daily of NR mixed in Karo® syrup and administered by oral gavage. Barrows were administered their assigned treatment for 10 days, after which they were harvested under USDA inspection. Twenty-four hours after harvest, carcass measurements were taken by trained personnel, carcasses were fabricated into the 5 major wholesale cuts, and whole-boneless loins were vacuum packaged and aged for 10 days. Loin were cut into 3 chops with chop 1 being used for day-0 metmyoglobin reducing ability (MRA) analysis, chop 2 being used for day-4 MRA and oxygen consumption rate (OCR) analyses, and chop 3 for 8-day objective/subjective color evaluation and MRA and OCR analyses. There were no Treatment×Day interactions for all objective and subjective color measurements (P>0.77). Day of display affected all measures consistent with the discoloration of meat (P<0.02), except L* (lightness; 0=black and 100=white) value which was not affected (P=0.14; Table 5).

[2] = test system: growing pigs; experiment: Longissimus lumborum NAD+ content (Example III); assay type: in vivo, pig
Protocol: Nine growing pigs were blocked by bodyweight (BW) and placed in metabolism crates. After a 3-day acclimation period, pigs within each BW block were randomly assigned to a treatment (n=3 pigs/treatment). Treatments comprised pigs supplemented 0, 15, or 30 mg/kg BW NR for 7 days. Pigs were allowed ad libitum access to a standard growing diet and water. Treatments were administered daily at 8 a.m. by mixing NR in 20 mL of Karo® dark syrup and orally drenching the pigs. On day 0 and 3 of the trial, muscle biopsies of the LL were taken for NAD+ analysis using standard procedures. At day 7, pigs were transported to the Kansas State University Meats Laboratory and euthanized by a captive penetrating bolt to the brain, followed by exsanguination. Following harvest procedures, 3 g of the LL were collected for NAD+ analysis. Twenty-four hours after harvest, the whole LL not sampled at harvest was removed from the carcass and aged 10 days. After aging, the LL was cut into 6 chops for retail color stability analysis, including 6-day surface oxy- and metmyoglobin percentage, 6-day objective and subjective color panel evaluation, and day 4 and 6 metmyoglobin reducing ability (MRA).

[3] = test system: Fertilized Cobb 500 broiler eggs; experiment: Pectoralis major succinate dehydrogenase staining intensity (second Example VI); assay type: in vivo, chicken; conditions: 250, 500 or 1,000 mM NR; hatched chicks
Protocol: The methods of Noel et al. (2016) were followed for succinate dehydrogenase (SDH) staining. Slides were incubated at 37° C. for 1 h in a prewarmed incubation solution containing nitro blue tetrazolium solution, phosphate buffer, and sodium succinate solution. After washing in ultrapure water 3 times for 1 min each, 5 μL of 9:1 glycerol in PBS was placed on each cryosection and they were coverslipped for imaging. All cryosections were imaged at 200× magnification using a Nikon Eclipse TI-U inverted microscope (Nikon Instruments Inc., Melville, N.Y.). Immunohistochemistry photomicrographs were collected with a DS-QiMC digital camera (Nikon Instruments Inc.) and SDH cryosections were collected with a Nikon DS-Fil color digital camera (Nikon Instruments Inc.) White light intensity was kept constant for SDH photomicrographs. All photomicrograph collection and image analyses were conducted using NIS Elements Basic Software (Nikon Instruments Inc.). Cross-sectional area (CSA) of a minimum of 1,000 muscle fibers per chick was determined as the area within the dystrophin border. The number of satellite cell was determined as nuclei co-staining for Pax 7 and Hoechst dye located at the periphery of muscle fiber. A minimum of 50 muscle fiber bundles per chick were analyzed for SDH mean intensity using the same software. […]

[4] = 8-day display, treatment effect not significant (P>0.19)

SMILES: NC(=O)c1ccc[n+]([C@@H]2O[C@H](CO)[C@@H](O)[C@H]2O)c1 [Nicotinamide riboside, nicotinamide riboside]
- Metmyoglobin reducing ability (MRA) vs control [1, 4]: greater
- Oxygen consumption rate (OCR) vs control [1, 4]: greater
- Loin chop L* (0 = black and 100 = white) ([1]; display day 0): 64.4
- Loin chop a* (−60 = green and 60 = red) ([1]; display day 0): 19.7
- Loin chop L* (0 = black and 100 = white) ([1]; display day 1): 65.2
- Loin chop a* (−60 = green and 60 = red) ([1]; display day 1): 18.8
- Loin chop L* (0 = black and 100 = white) ([1]; display day 2): 63.7
- Loin chop a* (−60 = green and 60 = red) ([1]; display day 2): 18.6
- Loin chop L* (0 = black and 100 = white) ([1]; display day 3): 63.4
- Loin chop a* (−60 = green and 60 = red) ([1]; display day 3): 17.8
- Loin chop L* (0 = black and 100 = white) ([1]; display day 4): 63.1
- Loin chop a* (−60 = green and 60 = red) ([1]; display day 4): 17.3
- Loin chop L* (0 = black and 100 = white) ([1]; display day 5): 62.9
- Loin chop a* (−60 = green and 60 = red) ([1]; display day 5): 16.3
- Loin chop L* (0 = black and 100 = white) ([1]; display day 6): 62.7
- Loin chop a* (−60 = green and 60 = red) ([1]; display day 6): 15.6
- Loin chop L* (0 = black and 100 = white) ([1]; display day 7): 62.8
- Loin chop a* (−60 = green and 60 = red) ([1]; display day 7): 15.1
- Loin chop L* (0 = black and 100 = white) ([1]; display day 8): 62.8
- Loin chop a* (−60 = green and 60 = red) ([1]; display day 8): 14.7
- Trained panelists loin chop discoloration vs control ([1]; entire 8-day display period): less discoloration
- Loin chop surface metmyoglobin vs control ([1]; over the 8-day display period): less surface metmyoglobin formation
- Loin chop surface oxymyoglobin vs control ([1]; over the 8-day display period): greater surface oxymyoglobin
- Day 3 NAD+ change, percent change ([2]; 15 mg/kg): 28.55^b,x Percent
- Day 3 NAD+ change, total ([2]; 15 mg/kg): 2.10^b pMol/g tissue
- Day 7 NAD+ change, percent change ([2]; 15 mg/kg): 35.29^b,x Percent
- Day 7 NAD+ change, total ([2]; 15 mg/kg): 2.72^b pMol/g tissue
- NAD+ ([2]; 15 mg/kg group, Day 0 (before supplementation)): 7.70 pMol/g tissue
- NAD+ ([2]; 15 mg/kg, Day 7): 10.42 pMol/g tissue
- NAD+ ([2]; 15 mg/kg, middle column group (Day 3, head not given)): 9.80 pMol/g tissue
- Day 3 NAD+ change, percent change ([2]; 30 mg/kg): 6.43^a,b,y Percent
- Day 3 NAD+ change, total ([2]; 30 mg/kg): 0.71^a,b,y pMol/g tissue
- Day 7 NAD+ change, percent change ([2]; 30 mg/kg): 10.92^a,b,y Percent
- Day 7 NAD+ change, total ([2]; 30 mg/kg): 0.93^a,b,y pMol/g tissue
- NAD+ ([2]; 30 mg/kg group, Day 0 (before supplementation)): 8.60 pMol/g tissue
- NAD+ ([2]; 30 mg/kg, Day 7): 9.53 pMol/g tissue
- NAD+ ([2]; 30 mg/kg, middle column group (Day 3, head not given)): 9.31 pMol/g tissue
- SDH staining intensity [3]: no treatment effect
